According to ChEMBL document CHEMBL4251603, “Structure-activity studies on N-Substituted tranylcypromine derivatives lead to selective inhibitors of lysine specific demethylase 1 (LSD1) and potent inducers of leukemic cell differentiation” (Eur J Med Chem, 2018):
The source made the active and inactive calls. The calls are words filed in the database; no cut-off is given here.

What was measured:
SJRH30 [1] = experiment: Induction of cell death in human Rh30 cells at 50 to 100 nM after 72 hrs by propidium iodide/Hoechst 33342 staining based fluorescence microscopic analysis; type: functional
[2] = molecular target: T1, Amine oxidase [flavin-containing] A (Homo sapiens, UniProt P21397)
T1 sequence (P21397 whole entry): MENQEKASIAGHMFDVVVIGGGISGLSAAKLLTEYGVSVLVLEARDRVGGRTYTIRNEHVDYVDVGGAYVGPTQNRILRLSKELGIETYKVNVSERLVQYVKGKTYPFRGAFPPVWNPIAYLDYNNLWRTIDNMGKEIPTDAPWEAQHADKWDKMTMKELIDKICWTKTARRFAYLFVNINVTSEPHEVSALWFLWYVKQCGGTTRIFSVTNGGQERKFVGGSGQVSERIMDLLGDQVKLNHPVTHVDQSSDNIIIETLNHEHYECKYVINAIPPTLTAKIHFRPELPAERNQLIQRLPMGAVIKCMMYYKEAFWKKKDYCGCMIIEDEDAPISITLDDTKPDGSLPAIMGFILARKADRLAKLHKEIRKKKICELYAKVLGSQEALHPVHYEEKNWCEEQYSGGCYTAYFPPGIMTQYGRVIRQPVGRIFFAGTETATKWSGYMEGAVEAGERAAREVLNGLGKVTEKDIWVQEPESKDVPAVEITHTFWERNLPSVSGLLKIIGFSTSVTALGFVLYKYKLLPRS

THP-1 = experiment: cells; conditions: Homo sapiens, THP-1, 5 min, read-out: INH
SJRH30 [3] = experiment: Potentiation of JNJ-26481585-induced cell death in human Rh30 cells after 72 hrs by propidium iodide/Hoechst 33342 staining based fluorescence microscopic analysis; type: functional
[4] = molecular target: T2, Amine oxidase [flavin-containing] B (Homo sapiens, UniProt P27338); experiment: (§1) Inhibition of MAO-B (unknown origin) at 250 uM using beetle luciferin derived luminogenic substrate preincubated for 15 mins followed by substrate addition measured after 60 mins by MAO-Glo assay relative to control; conditions: 1 h, 250 µM
T2 sequence (P27338 whole entry): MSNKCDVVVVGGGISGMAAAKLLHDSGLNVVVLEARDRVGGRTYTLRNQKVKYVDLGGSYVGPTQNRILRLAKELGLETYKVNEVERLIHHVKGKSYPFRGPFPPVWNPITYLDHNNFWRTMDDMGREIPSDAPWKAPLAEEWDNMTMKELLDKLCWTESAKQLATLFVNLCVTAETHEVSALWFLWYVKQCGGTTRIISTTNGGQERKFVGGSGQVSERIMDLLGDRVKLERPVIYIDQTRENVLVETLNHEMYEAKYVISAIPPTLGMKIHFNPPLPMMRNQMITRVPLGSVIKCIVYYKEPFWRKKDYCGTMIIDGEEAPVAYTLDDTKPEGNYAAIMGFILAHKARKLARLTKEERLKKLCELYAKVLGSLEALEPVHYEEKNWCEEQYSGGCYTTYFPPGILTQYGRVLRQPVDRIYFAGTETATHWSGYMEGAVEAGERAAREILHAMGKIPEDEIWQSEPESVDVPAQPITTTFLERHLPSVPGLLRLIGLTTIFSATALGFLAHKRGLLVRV

MAO-B = molecular target: T3, MAO-B (Homo sapiens, UniProt P27338); experiment: as §1; conditions: MAO-B enzyme (unknown origin), probe beetle luciferin derived luminogenic substrate
T3 sequence (P27338 whole entry): T2 sequence (P27338 whole entry)

[5] = molecular target: Lysine-specific histone demethylase 1A (Homo sapiens, UniProt O60341)

Row | IC50 [2] [µM] | inhibition (INH) [4] | inhibition at 1 h, 250 µM (MAO-B) [%] | IC50 [5] [µM] | Compound | Activity (SJRH30 [1]) | inhibition at 0.05 µM (THP-1) [%] | Activity (SJRH30 [3])
1 | 17.1 | Not Active | – | – | CNS(=O)(=O)c1ccc(CN[C@H]2C[C@@H]2c2ccccc2)cc1 (relative stereo) | Active | 80 | Active
2 | 21.6 | – | 42 | – | NS(=O)(=O)c1ccc(CN[C@H]2C[C@@H]2c2ccccc2)cc1 (relative stereo) | Active | 80 | Active
3 | – | – | – | 0.09 | Cc1ccc(-c2ncc(OCC3CCNC3)cc2-c2ccc(C#N)cc2)cc1 (centres undefined) | – | – | –
4 | – | – | – | 1.7 | O=C(O)c1ccc(CN2CCC(CN[C@H]3C[C@@H]3c3ccccc3)CC2)cc1 | Active | – | Active
